We go through 20 compounds from US20190322676A1, “CERAMIDE GALACTOSYLTRANSFERASE INHIBITORS FOR THE TREATMENT OF DISEASE” (BioMarin Pharmaceutical Inc., priority 2016, published 2019).

Structures can show the parent of a compound that is named as a salt. Where only a bound is given, the exact number is not on record here.

For the test, the target named is T1, human CGT (ceramide galactosyltransferase), CHO/CGT lysate (Homo sapiens, UniProt Q16880).
T1 construct: Full-length human CGT cDNA was cloned into the BamH1/Xho1 site of pcDNA3.1 (+); expressed in transfected cells; host or cells: Chinese hamster ovary (CHO) cells; lysate prepared with M-PER
T1 sequence (Q16880 21-541): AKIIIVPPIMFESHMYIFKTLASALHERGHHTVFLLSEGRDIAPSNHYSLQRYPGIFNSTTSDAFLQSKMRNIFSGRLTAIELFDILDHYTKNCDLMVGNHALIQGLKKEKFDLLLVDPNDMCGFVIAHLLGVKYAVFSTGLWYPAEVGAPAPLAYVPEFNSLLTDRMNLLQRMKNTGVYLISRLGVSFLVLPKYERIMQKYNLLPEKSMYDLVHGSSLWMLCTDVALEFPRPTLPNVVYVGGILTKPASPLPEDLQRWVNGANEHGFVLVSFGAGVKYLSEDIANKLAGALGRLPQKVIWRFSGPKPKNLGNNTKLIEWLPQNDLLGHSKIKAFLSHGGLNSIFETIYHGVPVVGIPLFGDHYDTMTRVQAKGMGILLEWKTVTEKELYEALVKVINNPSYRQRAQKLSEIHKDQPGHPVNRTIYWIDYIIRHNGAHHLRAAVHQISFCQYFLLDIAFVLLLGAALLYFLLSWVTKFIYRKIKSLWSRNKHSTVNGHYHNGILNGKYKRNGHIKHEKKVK
Put plainly: CGT enzyme assay, RapidFire/MS/MS readout with 0.01% Tween added (Table 1 ranges with two asterisks **). It is filed as biochemical. The settings on record: CGT enzymatic assay; range with two asterisks (**): RapidFire/MS/MS method with 0.01% Tween added. Summed up:
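IC50s come from variable-slope dose-response fits of internal-standard-normalized C6-NBD-dihydro-galactosylceramide, measured by RapidFire/MS/MS (ESI negative). Reactions: 1 h, 37 °C, human CGT-expressing CHO lysate (4 μg), 0.001–50 μM compound, 10 μM NBD-dihydro-ceramide, 17.5 μM UDP-galactose, 0.5% DMSO, pH 7.2; 0.01% Tween 80 added for ** values.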
By IC50 is commonly meant the midpoint of a concentration-inhibition curve. `N[C@@H]1CCN(C(=O)[C@H](NS(=O)(=O)c2ccc3cc(OC4CCCC4)ccc3c2)C(F)(F)c2ccc(-c3ccc(Cl)cc3)cc2)C[C@H]1F` [Compound 178-3, N—((S)-3-((3R,4R)-4-amino-3-fluoropiperidin-1-yl)-1-(4′-chloro-[1,1′-biphenyl]-4-yl)-1,1-difluoro-3-oxopropan-2-yl)-6-(cyclopentyloxy)naphthalene-2-sulfonamide] gave an IC50 of 30 to 100 µM.

In turn, `O=C([C@@H](NS(=O)(=O)c1ccc(OCC2CCCCC2)cc1)C(F)(F)c1ccc(-c2ccc(Cl)cc2)cc1)N1C[C@H]2CNC[C@H]2C1` [Compound 179-1, N—((R)-1-(4′-chloro-[1,1′-biphenyl]-4-yl)-1,1-difluoro-3-((3aR,6aS)-hexahydropyrrolo[3,4-c]pyrrol-2(1H)-yl)-3-oxopropan-2-yl)-4-(cyclohexylmethoxy) benzenesulfonamide trifluoroacetate] yielded an IC50 of 1 to 10 µM. On to `O=C([C@H](NS(=O)(=O)c1ccc(OCC2CCCCC2)cc1)C(F)(F)c1ccc(-c2ccc(Cl)cc2)cc1)N1C[C@H]2CNC[C@H]2C1` [Compound 179-2, N—((S)-1-(4′-chloro-[1,1′-biphenyl]-4-yl)-1,1-difluoro-3-((3aR,6aS)-hexahydropyrrolo[3,4-c]pyrrol-2(1H)-yl)-3-oxopropan-2-yl)-4-(cyclohexylmethoxy)benzenesulfonamide trifluoroacetate], for which the IC50 lay in the range of 30 to 100 µM. For the compound `N[C@H]1CC2CCC1N2C(=O)[C@@H](NS(=O)(=O)c1ccc2cc(OC3CCCC3)ccc2c1)C(F)(F)c1ccc(-c2ccc(Cl)cc2)cc1` (stereo partly drawn) [Compound 180-1, N-((2R)-3-((2S)-2-amino-7-azabicyclo[2.2.1]heptan-7-yl)-1-(4′-chloro-[1,1′-biphenyl]-4-yl)-1,1-difluoro-3-oxopropan-2-yl)-6-(cyclopentyloxy)naphthalene-2-sulfonamide], the IC50 lay in the range of 1 to 10 µM. Turning to `N[C@H]1CC2CCC1N2C(=O)[C@H](NS(=O)(=O)c1ccc2cc(OC3CCCC3)ccc2c1)C(F)(F)c1ccc(-c2ccc(Cl)cc2)cc1` (stereo partly drawn) [Compound 180-2, N-((2S)-3-((2S)-2-amino-7-azabicyclo[2.2.1]heptan-7-yl)-1-(4′-chloro-[1,1′-biphenyl]-4-yl)-1,1-difluoro-3-oxopropan-2-yl)-6-(cyclopentyloxy)naphthalene-2-sulfonamide], the IC50 is 10 to 30 µM.

`N[C@@H]1CC2CCC1N2C(=O)[C@H](NS(=O)(=O)c1ccc2cc(OC3CCCC3)ccc2c1)C(F)(F)c1ccc(-c2ccc(Cl)cc2)cc1` (stereo partly drawn) [Compound 180-3, N-((2S)-3-((2R)-2-amino-7-azabicyclo[2.2.1]heptan-7-yl)-1-(4′-chloro-[1,1′-biphenyl]-4-yl)-1,1-difluoro-3-oxopropan-2-yl)-6-(cyclopentyloxy)naphthalene-2-sulfonamide] returned an IC50 of 1 to 10 µM.

With `N[C@@H]1CC2CCC1N2C(=O)[C@@H](NS(=O)(=O)c1ccc2cc(OC3CCCC3)ccc2c1)C(F)(F)c1ccc(-c2ccc(Cl)cc2)cc1` (some centres unmarked) [Compound 180-4], the IC50 fell in the range of 1 to 10 µM.

On to `NC1CCN(C(=O)[C@@H](NS(=O)(=O)c2ccc(OCC3CCCCC3)cc2)C(F)(F)c2cccc(-c3ccc(Cl)cc3)c2)CC1` [Compound 181-1, (R)—N-(3-(4-aminopiperidin-1-yl)-1-(4′-chloro-[1,1′-biphenyl]-3-yl)-1,1-difluoro-3-oxopropan-2-yl)-4-(cyclohexylmethoxy)benzenesulfonamide trifluoroacetate], for which the IC50 lay within 1 to 10 µM.

As to `NC1CCN(C(=O)[C@H](NS(=O)(=O)c2ccc(OCC3CCCCC3)cc2)C(F)(F)c2cccc(-c3ccc(Cl)cc3)c2)CC1` [Compound 181-2, (S)—N-(3-(4-aminopiperidin-1-yl)-1-(4′-chloro-[1,1′-biphenyl]-3-yl)-1,1-difluoro-3-oxopropan-2-yl)-4-(cyclohexylmethoxy) benzenesulfonamide trifluoroacetate], the IC50 lay in the range of 1 to 10 µM. The result for `NC1CCN(C(=O)[C@@H](NS(=O)(=O)c2ccc3cc(OC4CCCC4)ccc3c2)C(F)(F)c2ccc(C3(C(F)(F)F)CC3)cc2)CC1` [Compound 182-1, (R)—N-(3-(4-aminopiperidin-1-yl)-1,1-difluoro-3-oxo-1-(4-(1-(trifluoromethyl)cyclopropyl)phenyl)propan-2-yl)-6-(cyclopentyloxy)naphthalene-2-sulfonamide trifluoroacetate] reads below 1 µM; that for `NC1CCN(C(=O)[C@H](NS(=O)(=O)c2ccc3cc(OC4CCCC4)ccc3c2)C(F)(F)c2ccc(C3(C(F)(F)F)CC3)cc2)CC1` [Compound 182-2, (S)—N-(3-(4-aminopiperidin-1-yl)-1,1-difluoro-3-oxo-1-(4-(1-(trifluoromethyl)cyclopropyl)phenyl)propan-2-yl)-6-(cyclopentyloxy) naphthalene-2-sulfonamide trifluoroacetate], 10 to 30 µM. Regarding `N[C@H]1[C@@H]2CC[C@H]1CN(C(=O)[C@@H](NS(=O)(=O)c1ccc(OCC3CCCCC3)cc1)C(F)(F)c1ccc(-c3ccc(Cl)cc3)cc1)C2` [Compound 183-1, N-((R)-3-((1R,5S,8R)-8-amino-3-azabicyclo[3.2.1]octan-3-yl)-1-(4′-chloro-[1,1′-biphenyl]-4-yl)-1,1-difluoro-3-oxopropan-2-yl)-4-(cyclohexylmethoxy)benzenesulfonamide], the concentration for half-maximal inhibition (IC50) is below 1 µM. In turn, `NC1C2CCC1CN(C(=O)[C@H](NS(=O)(=O)c1ccc(OCC3CCCCC3)cc1)C(F)(F)c1ccc(-c3ccc(Cl)cc3)cc1)C2` (stereo partly drawn) [Compound 183-2, N-((S)-3-((1R,5S,8S)-8-amino-3-azabicyclo[3.2.1]octan-3-yl)-1-(4′-chloro-[1,1′-biphenyl]-4-yl)-1,1-difluoro-3-oxopropan-2-yl)-4-(cyclohexylmethoxy)benzenesulfonamide] gave an IC50 of 1 to 10 µM. Compound `N[C@H]1[C@@H]2CC[C@H]1CN(C(=O)[C@@H](NS(=O)(=O)c1ccc3cc(OC4CCCC4)ccc3c1)C(F)(F)c1ccc(-c3ccc(Cl)cc3)cc1)C2` [Compound 184-1, N-((R)-3-((1R,5S,8R)-8-amino-3-azabicyclo[3.2.1]octan-3-yl)-1-(4′-chloro-[1,1′-biphenyl]-4-yl)-1,1-difluoro-3-oxopropan-2-yl)-6-(cyclopentyloxy)naphthalene-2-sulfonamide] came in with an IC50 of 1 to 10 µM.

For `N[C@H]1[C@@H]2CC[C@H]1CN(C(=O)[C@H](NS(=O)(=O)c1ccc3cc(OC4CCCC4)ccc3c1)C(F)(F)c1ccc(-c3ccc(Cl)cc3)cc1)C2` [Compound 184-2, N-((S)-3-((1R,5S,8S)-8-amino-3-azabicyclo[3.2.1]octan-3-yl)-1-(4′-chloro-[1,1′-biphenyl]-4-yl)-1,1-difluoro-3-oxopropan-2-yl)-6-(cyclopentyloxy)naphthalene-2-sulfonamide], the IC50 lay within 1 to 10 µM. In turn, `NC1CCN(C(=O)[C@@H](NS(=O)(=O)c2ccc(CCOC3CCCC3)cc2)C(F)(F)c2ccc(-c3ccc(Cl)cc3)cc2)CC1` [Compound 185-1, (R)-N-(3-(4-aminopiperidin-1-yl)-1-(4′-chloro-[1,1′-biphenyl]-4-yl)-1,1-difluoro-3-oxopropan-2-yl)-4-(2-(cyclopentyloxy)ethyl)benzenesulfonamide] yielded an IC50 of 10 to 30 µM. As for `NC1CCN(C(=O)[C@H](NS(=O)(=O)c2ccc(CCOC3CCCC3)cc2)C(F)(F)c2ccc(-c3ccc(Cl)cc3)cc2)CC1` [Compound 185-2, (S)-N-(3-(4-aminopiperidin-1-yl)-1-(4′-chloro-[1,1′-biphenyl]-4-yl)-1,1-difluoro-3-oxopropan-2-yl)-4-(2-(cyclopentyloxy)ethyl)benzenesulfonamide], the figure is 30 to 100 µM; as for `N[C@H]1CCN(C(=O)[C@@H](NS(=O)(=O)c2ccc(OCC3CCCCC3)cc2)C(F)(F)c2ccc(Cl)cc2)C1` [Compound 186-1, N-((R)-3-((S)-3-aminopyrrolidin-1-yl)-1-(4-chlorophenyl)-1,1-difluoro-3-oxopropan-2-yl)-4-(cyclohexylmethoxy)benzenesulfonamide], 1 to 10 µM. `N[C@H]1CCN(C(=O)[C@H](NS(=O)(=O)c2ccc(OCC3CCCCC3)cc2)C(F)(F)c2ccc(Cl)cc2)C1` [Compound 186-2, N-((S)-3-((S)-3-aminopyrrolidin-1-yl)-1-(4-chlorophenyl)-1,1-difluoro-3-oxopropan-2-yl)-4-(cyclohexylmethoxy)benzenesulfonamide]: the IC50 lay in the range of 30 to 100 µM. `NC1CCN(C(=O)[C@@H](N(CC(F)(F)F)S(=O)(=O)c2ccc3cc(OC4CCCC4)ccc3c2)C(F)(F)c2ccc(Br)cc2)CC1` [Compound 187-1, (R)-N-(3-(4-aminopiperidin-1-yl)-1-(4-bromophenyl)-1,1-difluoro-3-oxopropan-2-yl)-6-(cyclopentyloxy)-N-(2,2,2-trifluoroethyl)naphthalene-2-sulfonamide] gave a 50% inhibitory concentration (IC50) of 30 to 100 µM.
